Reference: patent US12384767B2, “Probe for detection of cathepsin activity” (University of Florida Research Foundation, Incorporated, priority 2020, dated 2025)
Like-named read-outs stand apart in the source and are kept apart here. Residues, ends and D or L forms follow the SMILES beside them. *: point of attachment. AMC = Cc1cc(=O)oc2cc(N*)ccc12; Cbz = O=C(OCc1ccccc1)*

Columns and labels:
[1] = molecular target: CTB (Human Cathepsin B/CTSB Protein) (Homo sapiens, UniProt P07858); experiment: Time-course cathepsin assay, CTB signal normalized to CTL; type: biochemical; conditions: 5 uM probe, 5 nM enzyme, lowest competing signal over time course
Text: (§1) CTV and CTB appear to remain within the initial velocity region of the curves during this time, with a markedly lower slope than that observed for CTL initially.
(§2) The kinetic assays were repeated at pH 5.0 (FIG. 3C, D), and overall the same trends were observed as at pH 6.5. One notable difference is the altered reaction slope of CTL at this pH, which appears to have less of a plateau and instead seems to shift to a second phase of constant, yet slower, velocity. […] This improved activity of CTB at low pH is consistent with previous observations that CTB's unique carboxypeptidase activity is dependent on an acidic environment, and that this activity is disengaged at neutral pH^13.
(§3) To estimate relative selectivity of the compounds for CTL over the other enzymes, the intensity at each time point for CTB, CTV, or CTS, was divided by the intensity of CTL at the same time point; this normalizes CTL-generated signal intensity to 1.0, and expresses the relative signal generated by the other enzymes (FIG. 5). These graphs indicate that off-target signal is least prominent within the first 10 min of incubation, as the faster kinetics of the probes to CTL generate more contrast at these earlier time points. To quantify the selectivity of CTLAP and sc-3136, the lowest interfering signal from each enzyme was identified and tabulated in Table 1. Also identified was the assay time at which the total competing signal (sum of CTB, CTV, and CTS) was lowest, and the relative intensity of all competing enzymes at that time point. […] The optimum results are achieved within 10 min incubation time, lending strength to the application of CTLAP for rapid detection of CTL, even in the presence of competing enzymes.
(§4) • 1. Recombinant human Cathepsin L/MEP protein (Active) • a. Product ab174030; Lot No. (Conc.) GR3210572-1 (N/A) Sino Biological • 1. Human Cathepsin B/CTSB Protein (His Tag) • a. Cat. No. 10483-H08H • 2. Human Cathepsin V/Cathepsin L2/Preproprotein Protein (His Tag) • a. Cat. No. 10093-H08H • 3. Human Cathepsin S/CTSS Protein (His Tag) • a. Cat. No. 10487-H08H Santa Cruz Biotechnology, Inc. • 1. […] Enzyme storage and preparation:
(§5) Cathepsins reconstituted as usual and diluted into cathepsin reaction buffers (pH 5.0 or 6.5) in an opaque-bottom 96-well plate. Probes added quickly to each active well, then emission measured immediately on BioTek Synergy H1 plate reader, collecting consecutive 36 sec runs over the first 15 min of reaction time. Final probe concentration was 5 uM and final enzyme concentration was 5 nM.

[2] = molecular target: T1, CTV (Human Cathepsin V/Cathepsin L2) (Homo sapiens, UniProt O60911); experiment: Time-course cathepsin assay, CTV signal normalized to CTL; type: biochemical; conditions: 5 uM probe, 5 nM enzyme, lowest competing signal over time course
T1 construct: His; purchased Sino Biological 10093-H08H
Text: as §1, §2, §3, §4, §5

[3] = molecular target: T2, CTS (Human Cathepsin S/CTSS Protein) (Homo sapiens, UniProt P25774); experiment: Time-course cathepsin assay, CTS signal normalized to CTL; type: biochemical; conditions: 5 uM probe, 5 nM enzyme, lowest competing signal over time course
T2 construct: His; purchased Sino Biological 10487-H08H
Text: as §1, §2, §3, §4, §5

CTB, CTV, and CTS = experiment: Time-course cathepsin assay, total competing signal (sum of CTB, CTV, and CTS) normalized to CTL; type: biochemical, human; conditions: 5 uM probe, 5 nM enzyme
Text: as §1, §2, §3
Table 1. Signal generated by CTB, CTV, and CTS, or all three enzymes together, relative to CTL signal at that time point. The lowest competing signal over the time course in FIG. 5 was selected for each individual enzyme, as well as for the sum of signals from all three enzymes. The time point at which the sum of all competing signals is lowest is also listed.
• 1. Recombinant human Cathepsin L/MEP protein (Active) • a. Product ab174030; Lot No. (Conc.) GR3210572-1 (N/A) Sino Biological • 1. Human Cathepsin B/CTSB Protein (His Tag) • a. Cat. No. 10483-H08H • 2. Human Cathepsin V/Cathepsin L2/Preproprotein Protein (His Tag) • a. Cat. No. 10093-H08H • 3. Human Cathepsin S/CTSS Protein (His Tag) • a. Cat. No. 10487-H08H Santa Cruz Biotechnology, Inc. • 1. […]
(§6) Cathepsins reconstituted as usual and diluted into cathepsin reaction buffers (pH 5.0 or 6.5) in an opaque-bottom 96-well plate. Probes added quickly to each active well, then emission measured immediately on BioTek Synergy H1 plate reader, collecting consecutive 36 sec runs over the first 15 min of reaction time. […]

[4] = molecular target: T3, CTL (Recombinant human Cathepsin L) (Homo sapiens, UniProt P07711); experiment: Probe activation by CTL, turn-on ratio and selectivity; type: biochemical
T3 construct: purchased Abcam ab174030
Procedure: as §1
To determine the relative selectivity of either probe for CTL, we examined the turn-on ratio (TOR) of the probes in response to each enzyme over the first hour of incubation by dividing the emission intensity at each time point by the average intensity of the probe in buffer without enzyme (FIG. 4).
as §4
Enzyme stocks (2.5 uM) were thawed and diluted to 100 nM with cathepsin storage buffer (pH 5.5). From calibrated probe stocks were created 50 uM working stocks in DMSO (3-157 accidentally prepared to 62.5 uM instead). In a 96-well plate, solutions of cathepsin reaction buffer (either pH 5.0 or 6.5), enzyme (5 nM), and probe (5 uM) were prepared. Probe added last to the reaction wells, then read in Synergy H1 plate reader immediately (˜5 min) for emission intensity at 350-445 nm. The plate was read at various time points, then stored in fridge overnight but not quenched. The pH 5.0 plate was read again after 48 h to capture completed reaction stage, and to collect emission spectra at 350 nm excitation for both caged and activated compound wells. […]
as §6

[5] = molecular target: T3, CTL (Recombinant human Cathepsin L); experiment: HPLC analysis of probe processing by CTL; type: biochemical; conditions: incubated with CTL in buffer at pH 5.0
Procedure: To confirm recognition of CTLAP by CTL, the probe was incubated with CTL in buffer at pH 5.0, and the probe was examined by HPLC analysis (FIG. 2). The compound alone in buffer retained maximum absorption at 330 nm.
[4-105] Cathepsin L reconstituted as per manufacturer's instructions, then diluted in a preliminary cathepsin storage buffer, in line with a literature procedure^16 (100 mM NaOAc/MaOH, 100 mM NaCl, 10 mM DTT, 1 mM EDTA, pH 5.5). Frozen in −80° C. freezer, and a portion removed and diluted in more cathepsin storage buffer to create 100 nM stock.
In opaque-bottom […], buffer (unfiltered) plated, then probes added, then enzyme added. Final solution in each well was 5 uM probe, 5 nM CTL, 10% DMSO/NaOAc buffer. Incubated at 37° C., removed at 10 min, 30 min, 1 h, and 4 h for measurement on plate reader (Synergy H1). […] Stored in tin foil at rt for 2 days, then stored in fridge.
To observe probe conversion, a well was diluted with DI water and injected into HPLC. […] The UV absorption traces of the new product(s) matched that of AMC.

[6] = Background emission intensity of probes in buffer without enzyme; type: physicochemical; conditions: for emission intensity (background): stocks of equal absorbance at 330 nm, quadruplicate
Procedure: This is attributed to the lower emission intensity observed in CTLAP in buffer without enzyme; the measured emission intensity of the compound at 5 μM is consistently 6- to 8-fold lower than that of sc-3136 (FIG. 6). As low background signal can improve the sensitivity and detection limit of fluorogenic assays, we sought to identify the cause of the low background intensity of CTLAP. We first examined the spectral and photophysical properties of the compound to confirm that this low background intensity was not an artifact of experimental methods.
We next tested hypothesis (2), that the emission intensity measured for CTLAP or sc-3136 was somehow compromised by the experimental conditions or by the structural differences of the compounds.
To duplicate unexpected absorbances from 4-131, stocks of probes from 4-128 used to create true 50 uM stocks. UV absorbance at 330 nm measured in a 96-well plate, then 150 uL transferred to an opaque-bottom plate and emission intensity (350/445 nm) was measured. Experiments run in quadruplicate, with a buffer blank. Measured on a BioTek Synergy H1.
50 uL of these solutions were diluted with 150 uL cathepsin L reaction buffer (pH 5.0) to give solutions of 5 uM compound in 25% DMSO/buffer. These samples were used to measure UV-Vis spectra (250-400 nm) on a Shimadzu UV-2700. A blank solution of 25% DMSO/buffer was used to baseline the instrument. Between samples, the cuvette was flushed with 200 uL DMSO, drained, and the next sample was added.
The remaining 150 uL of solution was diluted with 450 uL buffer to give 600 uL of 5 uM compound in 25% DMSO/buffer. The solution was transferred to an opaque-bottom 96-well plate, in three aliquots of 200 uL. The plate was used to measure emission and excitation spectra, and quantitative endpoint emission intensities. All spectral scans were collected at 50 Gain, in 5 nm steps.

[7] = Molar attenuation coefficient and quantum yield; type: physicochemical; conditions: for ε × 10^−3 (molar attenuation coefficient): absorption at 350 nm, standardized against 4-methylumbelliferone (MU); for ϕF (quantum yield): excitation 350 nm, emission 380-600 nm, standardized against MU
Procedure: To determine quantum yields, standard curves of CTLAP and sc-3136 were constructed between 0-10 μM in buffer, and the absorbance and total emission was measured. Values for the molar attenuation coefficient and quantum yield were standardized using measured absorption and emission intensity of 4-methylumbelliferone (MU) and its literature quantum yield and molar attenuation coefficient^14. Absorption of the solutions at 350 nm was measured, and all three compounds reported good (R^2>0.96) linear fit with increasing concentration (FIG. 10A). To measure total emission intensity, the emission spectrum of each compound was collected between 380-600 nm at an excitation wavelength of 350 nm; the area under the emission curve was calculated and graphed as a function of absorption value at 350 nm for each sample (FIG. 10B).
Compounds were compared to 4-methylumbelliferone (4-MU) and 2,4-difluoro-4-methylumbelliferone (DiFMU).
To construct calibration curves, stock solutions of 4-MU and DiFMU were prepared at ˜1 mM, then diluted with buffer (carbonate buffer, pH 10) to 50 uM. From these solutions, standard curves were constructed at 50, 25, 10, 5, and 1 uM by dilution with carbonate buffer, pH 10.1. Solutions were plated in 96-well plates. Absorbance at 350 nm was measured, and the fluorescence curve at 350 nm excitation and 380-600 nm was measured. The absorbance at 350 nm was graphed against the area under the curve (AUC) of the fluorescence spectrum from 380-600 nm, and the slope of each line was used to calculate the quantum yield according to the equation: […]

[8] = standard, literature value; cited from earlier work

T1 sequence (O60911 114-334): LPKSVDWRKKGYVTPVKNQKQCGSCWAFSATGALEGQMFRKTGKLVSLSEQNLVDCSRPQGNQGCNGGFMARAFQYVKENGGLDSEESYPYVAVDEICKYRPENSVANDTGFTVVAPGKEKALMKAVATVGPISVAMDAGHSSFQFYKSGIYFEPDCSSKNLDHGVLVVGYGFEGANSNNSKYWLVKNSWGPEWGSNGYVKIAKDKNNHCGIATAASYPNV
T2 sequence (P25774 115-331): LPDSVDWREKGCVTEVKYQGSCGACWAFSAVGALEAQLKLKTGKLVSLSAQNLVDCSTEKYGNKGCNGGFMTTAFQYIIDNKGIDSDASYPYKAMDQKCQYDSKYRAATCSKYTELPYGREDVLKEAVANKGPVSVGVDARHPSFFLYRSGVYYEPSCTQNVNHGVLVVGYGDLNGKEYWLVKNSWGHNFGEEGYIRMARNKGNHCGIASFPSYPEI
T3 sequence (P07711 114-333): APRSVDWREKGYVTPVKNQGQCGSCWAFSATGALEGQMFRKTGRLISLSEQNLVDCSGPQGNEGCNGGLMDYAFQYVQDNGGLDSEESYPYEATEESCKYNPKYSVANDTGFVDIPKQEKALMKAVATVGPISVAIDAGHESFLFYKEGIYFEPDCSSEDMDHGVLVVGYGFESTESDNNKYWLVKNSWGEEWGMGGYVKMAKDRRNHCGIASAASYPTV

Row | Compound | Optimal (lowest) CTB signal normalized to CTL ([1]; pH 5.0) | Optimal (lowest) CTB signal normalized to CTL ([1]; pH 6.5) | Optimal (lowest) CTV signal normalized to CTL ([2]; pH 5.0) | Optimal (lowest) CTV signal normalized to CTL ([2]; pH 6.5) | Optimal (lowest) CTS signal normalized to CTL ([3]; pH 5.0) | Optimal (lowest) CTS signal normalized to CTL ([3]; pH 6.5) | Lowest sum of signals from all three enzymes (B + V + S) normalized to CTL (CTB, CTV, and CTS; pH 5.0) | Lowest sum of signals from all three enzymes (B + V + S) normalized to CTL (CTB, CTV, and CTS; pH 6.5) | emission intensity (background) ([6]; 350/445 nm) | ε × 10^−3 (molar attenuation coefficient) [7] | ϕF (quantum yield) [7] | also measured
1 | Cc1cc(=O)oc2cc(NC(=O)C(CCCCN)NC(=O)C(Cc3ccc(-c4cccs4)cc3)NC(=O)OCc3ccccc3)ccc12 (centres unmarked) [CTLAP] | 15% | 6% | 10% | 15% | 1% | 1% | 31% | 25% | 6.1e3 rfu | 11.0 | 0.02 | selectivity for CTL over other cathepsins [4]: 6- to 10 fold; turn-on ratio (TOR) relative to that of sc-3136 ([4]; after 1 h incubation): approximately 4 fold; increase in emission intensity ([4]; within 10 min of incubation with CTL): 24 fold; conversion of probe to free AMC peak (HPLC) [5]: full conversion; emission intensity in buffer without enzyme, fold lower than sc-3136 ([6]; compound at 5 μM, 350 nm excitation, 445 nm emission): 6- to 8 fold
2 | Cc1cc(=O)oc2cc(O)ccc12 [MU, 4-methylumbelliferone] | – | – | – | – | – | – | – | – | – | – | – | ε × 10^−3 (molar attenuation coefficient) [8]: 19.3; ϕF (quantum yield) [8]: 0.63
3 | Cc1cc(=O)oc2cc(NC(=O)C(CCCN=C(N)N)NC(=O)C(Cc3ccccc3)NC(=O)OCc3ccccc3)ccc12 (stereo not drawn) [sc-3136, Z-FR-AMC] (Cbz-Phe-Arg-{AMC}; configuration not given here) | 16% | 21% | 14% | 16% | 7% | 7% | 39% | 46% | 4.8e4 rfu | 7.5 | 0.32 | ratio of background intensity for sc-3136 over 3-157 ([6]; 350/445 nm): 7.8 ×; emission intensity ratio between sc-3136 and CTLAP ([6]; excitation at 330 nm): 6.9 fold; emission intensity ratio between sc-3136 and CTLAP ([6]; excitation at 350 nm): 6.3 fold
